Results on 90 compounds are retold here after the Bradley open melting point set (2014).

“And” between values parts separate entries of the source, which are not always exact repeats. Equal values may be shown once.

Usually melting point stands for the temperature of the solid-liquid transition. Take `O=C(c1ccccc1)c1ccccc1Cl` [2-chlorobenzophenone]: the melting point came to 46 °C.
With `NC12CC3CC(CC(C3)C1)C2` [Amantadine] the figure was 180 °C; with `C1CCOC1` [tetrahydrofuran], -108 °C.
For `Clc1cccc(Cl)c1Cl` [1,2,3-trichlorobenzene] the value was 55 °C and 53 °C (2×); for `OC/C=C/c1ccccc1` [cinnamyl alcohol], 34 °C.
With `CC(C)CCC[C@@H](C)[C@H]1CC[C@H]2[C@@H]3CC[C@H]4CC(=O)CC[C@]4(C)[C@H]3CC[C@]12C` [5alpha-cholestan-3-one] the figure was 130 °C; with `CC(C)(C)NCC(O)COc1cccc2c1CC(O)C(O)C2` (stereo not given) [nadolol], 124 °C.
`CN1CCCC1=O` [1-Methylpyrrolidin-2-one] displayed a melting point of -23 °C.
With `C=CCCCCCCCCCCC` [1-tridecene] the figure was -23 °C; with `O=[N+]([O-])c1c(Cl)c(Cl)c(Cl)c(Cl)c1Cl` [Pentachloronitrobenzene], 144 °C.
For `NCCc1ccccc1` [2-phenylethylamine] the value was -60 °C.
For `Nc1cc([N+](=O)[O-])ccc1Cl` [2-chloro-5-nitroaniline] the value was 119 °C; for `O=C(O)CC1Cc2ccccc2C1` [2-indanylacetic acid], 92 °C; for `OCC#CCO` [2-butyne-1,4-diol], 57 °C.
In turn, `COC(=O)/C(=C\c1ccccc1)Cc1ccccc1` [methyl (2Z)-2-benzyl-3-phenylprop-2-enoate] had a melting point of 28 °C.
For `NC(=O)c1c(-c2ccccc2)nn(-c2ccccc2)c1N` [5-amino-1,3-diphenyl-1H-pyrazole-4-carboxamide] the value was 200 °C; for `C1CCC1` [cyclobutane], -90.7 °C.
Take `Cc1ccc(C)n1-c1ccccc1` [2,5-dimethyl-1-phenylpyrrole]: the melting point was found to be 50 °C.
With `COc1ccc(C=O)cn1` [6-methoxypyridine-3-carboxaldehyde] the figure was 51 °C.
With `CCCC(=O)OC(=O)CCC` [butyric anhydride] the figure was -75 °C.
In the case of `C[C@H](O)CN` [(2S)-1-amino-2-propanol], the melting point is 22.5 °C and 25 °C.
The compound `COCCOC` [1,2-Dimethoxyethane] showed a melting point of -58 °C.
On to `O=C(O)CSc1cccc2cccc(Cl)c12` [2-(8-chloro-1-naphthylthio)acetic acid], for which the melting point stood at 156 °C.
With `CCCCCCC(C)C` [2-methyloctane] the figure was -80 °C; with `CC(C)CC(=O)O` [3-methylbutanoic_acid], -30 °C.
With `Cc1ccc(S)c(S)c1` [3,4-toluenedithiol] the figure was 30 °C; with `COC(=O)c1ccc(C)cc1` [methyl_4-methylbenzoate], 37 °C; with `OB(O)c1ccc(N(Cc2ccccc2)Cc2ccccc2)cc1` [4-(dibenzylamino)benzeneboronic acid], 186 °C.
`COC(=O)OC` [dimethyl_carbonate] returned a melting point of 3 °C.
`O=C(CCCN1CCC(O)(c2ccc(Cl)cc2)CC1)c1ccc(F)cc1` [haloperidol] showed a melting point of 149 °C.
With `c1ccc(-c2c3ccccc3c(-c3ccccc3)c3ccccc23)cc1` [9,10-Diphenylanthracene] the figure was 249 °C.
With `c1ccc2c(c1)OCCOCCOCCOCCO2` [benzo-15-crown-5] the figure was 80 °C; with `CCCCCC(=O)O` [Hexanoic acid], -3 °C; with `[O-][n+]1ccccc1Cl` [2-chloropyridine n-oxide], 69 °C.
For `Nc1ccc(C(=O)O)c(O)c1` [Aminosalicylic Acid] the value was 150 °C.
`C[C@H]1O[C@@H](O[C@H]2[C@@H](O)C[C@H](O[C@H]3[C@@H](O)C[C@H](O[C@H]4CC[C@@]5(C)[C@H](CC[C@@H]6[C@@H]5CC[C@]5(C)[C@@H](C7=CC(=O)OC7)CC[C@]65O)C4)O[C@@H]3C)O[C@@H]2C)C[C@H](O)[C@@H]1O` [Digitoxin] gave a melting point of 256 °C.
For `O=C(O)[C@@]1(O)CC(O)[C@H](O)[C@H](O)C1` (stereo partly drawn) [D-quinic acid] the value was 165 °C; for `NC1=NN(c2ccccc2)CC1` [3-amino-4,5-dihydro-1-phenyl-1h-pyrazole], 169 °C; for `O=C(O)CCc1cccc(Br)c1` [3-(3-bromophenyl)propionic acid], 64 °C.
With `OB(O)c1cccc(O)c1` [3-hydroxybenzeneboronic acid] the figure was 209 °C; with `CN(C)c1ccc(N)cc1` [N,N-Dimethylbenzene-1,4-diamine], 35 °C.
On to `Cc1ccc(C)c(B(O)O)c1` [2,5-dimethylbenzeneboronic acid], for which the melting point came to 180 °C.
For `O=C1Cc2ccccc2C(=O)O1` [Homophthalic acid anhydride] the value was 143 °C; for `[O-][n+]1cccc(Br)c1` [3-bromopyridine n-oxide], 35 °C.
`COc1cc(C(=O)O)ccc1O` [vanillic acid] returned a melting point of 214 °C.
With `NC(=O)c1cccnc1` [Nicotinamide], the melting point stood at 130 °C.
With `CCCCCCCCC(=O)O` [nonanoic_acid] the figure was 12 °C; with `Cc1ccc(C(=O)/C=C/c2ccc(-c3ccccc3)o2)o1`, 123 °C.
`COC(=O)c1ccc2c(c1)CC1(CCC(c3ccc(C(C)(C)C)cc3)CC1)C2` (stereo not given): the melting point turned out to be 117 °C.
With `CC(=O)C=Cc1oc2ccc(Cl)cc2c1-c1ccc(C)o1` the figure was 119 °C; with `CCCCC1CCCCC1` [Butylcyclohexane], -75 °C.
Regarding `NC(c1ccccc1)(c1ccccc1)c1ccccc1` [tritylamine], the melting point came to 102 °C.
With `CCCCCCCCCCBr` [1-bromodecane] the figure was -29 °C; with `O=C(O)CCCCCCCCC(=O)O` [sebacic acid], 133 °C; with `CC(C)(C)OC(=O)N[C@@H](Cc1ccccc1)C(=O)O` [N-boc-L-phenylalanine], 87 °C.
For `O=[PH](O)c1ccccc1` [phenylphosphinic acid] the value was 84 °C; for `NC(=O)c1ccc(C=O)cc1` [p-formyl_benzamide], 75 °C; for `CCCC(=O)Nc1ccc(OCC(O)CNC(C)C)c(C(C)=O)c1` (stereo not given) [acebutolol], 119 °C.
With `Cc1ccccc1C#N` [o-tolunitrile] the figure was 13 °C; with `CC(C)Cc1ccc(C(C)C(=O)O)cc1` (stereo not drawn) [(+/+)-ibuprofen], 74.6 °C; with `Cc1c(CSC2OCC(O)C(O)C2O)c(C)c(CSC2OCC(O)C(O)C2O)c(C)c1CSC1OCC(O)C(O)C1O` (stereo not given), 209 °C.
`COc1cc(Cl)cc(OC)c1` [1-chloro-3,5-dimethoxybenzene] had a melting point of 34 °C.
For `Cc1cc[n+]([O-])cc1` [4-picoline-N-oxide] the value was 186 °C and 184 °C.
For `O=[N+]([O-])c1ccc(Oc2ccccc2)cc1` [4-nitrophenyl phenyl ether] the value was 55 °C.
For `CCCCOCC` [ethyl_butyl_ether] the value was -103 °C; for `CC(Br)Br` [1,1-dibromoethane], -63 °C; for `c1ccc(P(c2ccccc2)c2ccccc2)cc1` [Triphenylphosphine], 80.5 °C.
The compound `O=[N+]([O-])c1ccc(CS(=O)(=O)Cl)cc1` [4-nitro-alpha-toluenesulfonyl chloride] had a melting point of 92 °C.
As for `C[C@]12CCC(=O)C=C1CC[C@@H]1[C@@H]2CC[C@@]2(C)[C@H]1CC[C@]2(C)O` [17a-Methyltestosterone], the melting point turned out to be 163 °C.
For `CCN(CC)c1ccccc1` [N,N-Diethylaniline], the melting point is -38 °C.
Turning to `CCC(C)S` (stereo not given) [2-butanethiol], the melting point is -140 °C.
`Nc1nc2ccc([N+](=O)[O-])cc2s1` [2-amino-6-nitrobenzothiazole]: the melting point was found to be 248 °C.
For `CCCC(C)Cl` (stereo not given) [2-chloropentane] the value was -137 °C.
For `O=C(O)c1cc(Cl)sc1Cl` [2,5-dichlorothiophene-3-carboxylic acid] the value was 148 °C.
In turn, `COc1ccc(C(=O)c2ccccc2Cl)cc1OC` [methanone, (2-chlorophenyl)(3,4-dimethoxyphenyl)-] returned a melting point of 126 °C.
With `N#Cc1c(F)c(F)c(F)c(C#N)c1F` [2,4,5,6-Tetrafluoroisophthalonitrile] the figure was 79 °C; with `Cc1ccc(C)c2c1C(=O)OC2O` (stereo not given) [3-hydroxy-4,7-dimethyl-2-benzofuran-1(3H)-one], 158 °C; with `C[C@@H](CN1CC(=O)NC(=O)C1)N1CC(=O)NC(=O)C1` [Dexrazoxane], 194 °C.
`Nc1ccccc1CCc1ccccc1N` [2,2'-Ethane-1,2-diyldianiline]: the melting point was 33 °C.
For `CNc1ccc(C(=O)O)cc1` [4-(methylamino)benzoic acid] the value was 159 °C; for `CNC(=S)NCO` [noxythiolin], 88 °C; for `OB(O)c1c(F)cc(F)cc1F` [2,4,6-trifluorobenzeneboronic acid], 235 °C.
For `CCC1CO1` (stereo not given) [1,2-butene oxide], the melting point is -130 °C and -129 °C.
For `O=C(O)c1ccccc1I` [2-Iodobenzoic acid] the value was 162 °C; for `Cc1cc(Br)ncc1B(O)O` [6-bromo-4-methylpyridine-3-boronic acid], 164 °C; for `Cc1ccc(C)c(N)c1` [2,5-dimethylaniline], 15 °C.
For `CN(C)C=O` [dimethylformamide] the value was -61 °C; for `COc1ccc(CC#N)cc1OC` [3,4-dimethoxyphenylacetonitrile], 64 °C; for `CC1(C)O[C@@H]2CO[C@]3(COC(C)(C)O3)C(=O)[C@@H]2O1` [D-epoxone], 102 °C.
With `c1cc2ccc1CCc1ccc(cc1)CC2` [[2.2]paracyclophane] the figure was 286 °C.
